The values that follow come from ChEMBL document CHEMBL5465560, “Selectivity Literature for EUbOPEN Chemogenomic Library” (2024).

The structures appear in SMILES notation.

Assay [1] addresses Serine/threonine-protein kinase 26 (Homo sapiens, UniProt Q9P289). The settings on record: at 10 µM.
Assay [2] has as its target Serine/threonine-protein kinase Nek4 (Homo sapiens) (UniProt P51957). In words: Selectivity interaction (Ambit KINOMEscan and KiNATiv profiling in Jurkat cells) EUB0000090b NEK4. The format is cell-based. The following applies: at 1 µM.
The target in assay [3] is Dual specificity mitogen-activated protein kinase kinase 1 (Homo sapiens, UniProt Q02750). The following applies: at 10 µM.
In assay [4] the target is Non-receptor tyrosine-protein kinase TYK2 (Homo sapiens, UniProt P29597). In words: Selectivity interaction (KinomeScan (DiscoverX)) EUB0000092b TYK2. The following applies: at 10 µM.
The target in assay [5] is Phosphatidylinositol 4,5-bisphosphate 3-kinase catalytic subunit alpha isoform (Homo sapiens) (UniProt P42336). In words: (§1) Selectivity interaction (KinomeScan (DiscoverX)) EUB0000655a PIK3CA. The following applies: at 10 µM.
The test system of assay [6] is Phosphatidylinositol 4,5-bisphosphate 3-kinase catalytic subunit alpha isoform (Homo sapiens), P42336 [M1043I]. The assay is described as §1. The following applies: at 10 µM.
For assay [7], the system named is Phosphatidylinositol 4,5-bisphosphate 3-kinase catalytic subunit alpha isoform (Homo sapiens), P42336 [Q546K]. The assay is described as §1. The settings on record: at 10 µM.
Assay [8] has as its system Phosphatidylinositol 4,5-bisphosphate 3-kinase catalytic subunit alpha isoform (Homo sapiens), P42336 [C420R]. Described as §1. The following applies: at 10 µM.
Assay [9] has as its system Phosphatidylinositol 4,5-bisphosphate 3-kinase catalytic subunit alpha isoform (Homo sapiens), P42336 [I800L]. The description is as §1. The following applies: at 10 µM.
The subject of assay [10] is Phosphatidylinositol 4,5-bisphosphate 3-kinase catalytic subunit alpha isoform (Homo sapiens), P42336 [E545K]. The assay is described as §1. The following applies: at 10 µM.
Assay [11] has as its system Phosphatidylinositol 4,5-bisphosphate 3-kinase catalytic subunit alpha isoform (Homo sapiens), P42336 [E542K]. The description is as §1. The settings on record: at 10 µM.
Assay [12] has as its system Phosphatidylinositol 4,5-bisphosphate 3-kinase catalytic subunit alpha isoform (Homo sapiens), P42336 [H1047L]. The assay is described as §1. The following applies: at 10 µM.
Assay [13] relates to Phosphatidylinositol 4,5-bisphosphate 3-kinase catalytic subunit alpha isoform (Homo sapiens), P42336 [E545A]. The description is as §1. The settings on record: at 10 µM.
The subject of assay [14] is Phosphatidylinositol 4,5-bisphosphate 3-kinase catalytic subunit alpha isoform (Homo sapiens), P42336 [H1047Y]. The description is as §1. The settings on record: at 10 µM.
Assay [15] addresses Cyclin-dependent kinase 18 (Homo sapiens) (UniProt Q07002). In words: Selectivity interaction (KinomeScan (DiscoverX)) EUB0000695a CDK18. The following applies: at 100 nM.
For assay [16], the target named is Mitogen-activated protein kinase kinase kinase 20 (Homo sapiens) (UniProt Q9NYL2). In words: Selectivity interaction (KinomeScan (DiscoverX)) EUB0000695a MAP3K20. The following applies: at 100 nM.
Assay [17] addresses Ribosomal protein S6 kinase alpha-6 (Homo sapiens, UniProt Q9UK32). Nature of the assay: Selectivity interaction (Kinase screening (Nanosyn)) EUB0000604a RPS6KA6.
Assay [18] addresses Angiopoietin-1 receptor (Homo sapiens) (UniProt Q02763). In words: Selectivity interaction (KinomeScan (DiscoverX)) EUB0000045b TEK.
For assay [19], the target named is Protein arginine N-methyltransferase 8 (Homo sapiens, UniProt Q9NR22). Nature of the assay: Selectivity interaction (Methyltransferase screen (radiometric assays, panel of 8 PRMTs, 21 protein lysine methyltransferases, 3 DNA methyltransferases, and one RNA methyltransferase)) EUB0000272b PRMT8.
Assay [20] addresses Glycogen synthase kinase-3 beta (Homo sapiens, UniProt P49841). In words: Selectivity interaction (ActivX KiNativ screen (kinase selectivity in THP-1 cell lysates)) EUB0000639a GSK3B. The format is subcellular. The following applies: lysate.
Assay [21] concerns the target Tyrosine-protein kinase HCK (Homo sapiens) (UniProt P08631). Nature of the assay: Selectivity interaction (ActivX KiNativ screen (kinase selectivity in THP-1 cell lysates)) EUB0000639a HCK. It counts as subcellular. The following applies: lysate, at 5 µM.
Assay [22] concerns the target Interferon-induced, double-stranded RNA-activated protein kinase (Homo sapiens) (UniProt P19525). In words: Selectivity interaction (KinomeScan (DiscoverX)) EUB0000595a EIF2AK2. The settings on record: at 10 µM.
Assay [23] addresses Cyclin-dependent kinase 3 (Homo sapiens) (UniProt Q00526). Nature of the assay: Selectivity interaction (KinomeScan (DiscoverX)) EUB0000595a CDK3. The settings on record: at 10 µM.
In assay [24] the target is T1, Inhibitor of nuclear factor kappa-B kinase subunit alpha (Homo sapiens) (UniProt O15111).
T1 sequence (whole entry): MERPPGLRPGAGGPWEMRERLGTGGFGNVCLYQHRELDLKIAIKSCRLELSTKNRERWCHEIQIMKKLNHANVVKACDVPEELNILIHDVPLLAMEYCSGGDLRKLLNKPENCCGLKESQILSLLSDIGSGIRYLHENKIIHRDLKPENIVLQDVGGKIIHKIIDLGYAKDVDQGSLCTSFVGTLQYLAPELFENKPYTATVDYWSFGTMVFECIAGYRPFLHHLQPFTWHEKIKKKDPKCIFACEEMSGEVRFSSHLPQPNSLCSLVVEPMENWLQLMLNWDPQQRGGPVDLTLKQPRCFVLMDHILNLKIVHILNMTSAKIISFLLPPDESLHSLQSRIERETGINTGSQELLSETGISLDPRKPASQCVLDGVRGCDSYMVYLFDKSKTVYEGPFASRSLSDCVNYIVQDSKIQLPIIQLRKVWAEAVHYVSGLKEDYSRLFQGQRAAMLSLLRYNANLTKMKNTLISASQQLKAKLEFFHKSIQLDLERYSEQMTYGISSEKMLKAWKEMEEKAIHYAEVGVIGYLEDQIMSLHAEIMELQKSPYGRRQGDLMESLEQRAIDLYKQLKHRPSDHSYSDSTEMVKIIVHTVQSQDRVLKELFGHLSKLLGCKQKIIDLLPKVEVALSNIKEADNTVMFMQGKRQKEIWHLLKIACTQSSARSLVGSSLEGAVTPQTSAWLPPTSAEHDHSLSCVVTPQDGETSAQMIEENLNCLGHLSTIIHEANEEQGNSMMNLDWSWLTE
In words: Selectivity interaction (KinomeScan (DiscoverX)) EUB0001619a CHUK. The settings on record: at 1 µM.

In assay [25] the target is Ribosomal protein S6 kinase alpha-1 (Homo sapiens, UniProt Q15418). Nature of the assay: Selectivity interaction (Kinase panel (KiNativ target engagement assay in Jurkat cells)) EUB0001635a RPS6KA1. The format is cell-based. The settings on record: Selectivity number of off-targets 0.0, Selectivity number of targets 233.0, Source Knowledge https://www.sciencedirect.com/science/article/pii/S2451945619300674?via%3Dihub, at 1 µM.

Assay [26] addresses Cyclin-dependent kinase 16 (Homo sapiens) (UniProt Q00536). In words: Selectivity interaction (Kinase panel (KiNativ target engagement assay in Jurkat cells)) EUB0001635a CDK16. The settings on record: Selectivity number of off-targets 0.0, Selectivity number of targets 233.0, Source Knowledge https://www.sciencedirect.com/science/article/pii/S2451945619300674?via%3Dihub, at 1 µM. The format is cell-based.

Sequence of Glycogen synthase kinase-3 beta (P49841 whole entry, looked up): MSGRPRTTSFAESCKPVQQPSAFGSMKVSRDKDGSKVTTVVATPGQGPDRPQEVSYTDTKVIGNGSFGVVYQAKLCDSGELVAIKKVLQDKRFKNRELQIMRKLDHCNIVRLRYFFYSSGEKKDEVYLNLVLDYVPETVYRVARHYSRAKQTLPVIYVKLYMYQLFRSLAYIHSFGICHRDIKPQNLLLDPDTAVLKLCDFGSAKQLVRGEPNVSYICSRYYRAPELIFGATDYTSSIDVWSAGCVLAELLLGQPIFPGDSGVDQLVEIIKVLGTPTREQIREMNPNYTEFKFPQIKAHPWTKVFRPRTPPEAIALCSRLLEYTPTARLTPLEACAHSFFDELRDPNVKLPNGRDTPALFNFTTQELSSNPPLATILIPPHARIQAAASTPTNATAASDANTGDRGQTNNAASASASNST
Sequence of Protein arginine N-methyltransferase 8 (Q9NR22 2-394 limits assumed): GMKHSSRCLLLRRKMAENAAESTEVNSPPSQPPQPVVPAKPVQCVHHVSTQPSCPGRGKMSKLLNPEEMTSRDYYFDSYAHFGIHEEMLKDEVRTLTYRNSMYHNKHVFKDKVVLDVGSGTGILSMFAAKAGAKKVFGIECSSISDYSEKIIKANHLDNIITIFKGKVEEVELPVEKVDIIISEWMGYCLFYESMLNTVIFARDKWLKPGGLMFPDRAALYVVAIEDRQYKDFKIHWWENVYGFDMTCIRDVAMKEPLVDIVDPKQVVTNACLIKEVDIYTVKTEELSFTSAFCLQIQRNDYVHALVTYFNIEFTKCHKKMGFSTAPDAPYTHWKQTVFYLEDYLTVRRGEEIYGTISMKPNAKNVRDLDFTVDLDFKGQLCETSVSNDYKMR
Sequence of Angiopoietin-1 receptor (Homo sapiens) (Q02763 whole entry): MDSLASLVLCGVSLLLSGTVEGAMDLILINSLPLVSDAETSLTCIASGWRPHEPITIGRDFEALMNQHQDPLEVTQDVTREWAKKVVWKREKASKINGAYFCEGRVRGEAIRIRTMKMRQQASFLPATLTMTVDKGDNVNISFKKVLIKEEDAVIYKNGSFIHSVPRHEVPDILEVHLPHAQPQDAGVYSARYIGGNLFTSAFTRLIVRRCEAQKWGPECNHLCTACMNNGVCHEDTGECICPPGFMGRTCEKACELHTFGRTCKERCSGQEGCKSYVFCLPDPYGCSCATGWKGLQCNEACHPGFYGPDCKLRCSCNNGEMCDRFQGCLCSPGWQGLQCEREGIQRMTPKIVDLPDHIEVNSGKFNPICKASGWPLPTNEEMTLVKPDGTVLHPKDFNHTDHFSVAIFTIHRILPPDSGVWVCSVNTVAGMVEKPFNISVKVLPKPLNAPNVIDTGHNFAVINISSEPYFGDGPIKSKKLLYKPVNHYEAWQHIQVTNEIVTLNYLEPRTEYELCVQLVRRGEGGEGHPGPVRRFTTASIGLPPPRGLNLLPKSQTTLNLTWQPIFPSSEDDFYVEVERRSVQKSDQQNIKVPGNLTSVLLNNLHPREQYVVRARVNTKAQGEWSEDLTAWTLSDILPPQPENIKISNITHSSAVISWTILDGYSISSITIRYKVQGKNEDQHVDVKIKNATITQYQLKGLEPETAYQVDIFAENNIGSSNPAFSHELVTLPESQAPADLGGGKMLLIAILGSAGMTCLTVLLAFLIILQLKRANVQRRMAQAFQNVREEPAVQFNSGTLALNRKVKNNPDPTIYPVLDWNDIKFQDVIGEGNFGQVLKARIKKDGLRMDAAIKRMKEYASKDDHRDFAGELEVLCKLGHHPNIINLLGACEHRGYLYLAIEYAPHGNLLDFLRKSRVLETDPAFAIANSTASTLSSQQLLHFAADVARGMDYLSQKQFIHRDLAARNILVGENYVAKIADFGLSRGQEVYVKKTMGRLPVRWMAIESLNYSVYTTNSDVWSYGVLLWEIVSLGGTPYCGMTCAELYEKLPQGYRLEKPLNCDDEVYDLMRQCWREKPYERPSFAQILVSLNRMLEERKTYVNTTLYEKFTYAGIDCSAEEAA
Sequence of Serine/threonine-protein kinase 26 (Q9P289 2-416 limits assumed): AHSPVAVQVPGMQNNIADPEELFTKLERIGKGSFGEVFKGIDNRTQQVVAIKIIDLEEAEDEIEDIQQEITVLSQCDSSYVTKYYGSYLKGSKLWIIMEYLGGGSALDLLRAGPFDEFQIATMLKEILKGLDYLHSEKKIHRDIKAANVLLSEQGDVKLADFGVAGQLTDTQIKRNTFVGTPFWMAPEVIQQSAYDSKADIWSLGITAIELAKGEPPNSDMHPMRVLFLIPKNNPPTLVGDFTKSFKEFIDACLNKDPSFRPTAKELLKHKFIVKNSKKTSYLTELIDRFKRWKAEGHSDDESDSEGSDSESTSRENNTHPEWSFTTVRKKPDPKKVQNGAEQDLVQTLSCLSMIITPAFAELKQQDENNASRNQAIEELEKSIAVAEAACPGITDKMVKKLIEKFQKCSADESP
Sequence of Dual specificity mitogen-activated protein kinase kinase 1 (Q02750 whole entry): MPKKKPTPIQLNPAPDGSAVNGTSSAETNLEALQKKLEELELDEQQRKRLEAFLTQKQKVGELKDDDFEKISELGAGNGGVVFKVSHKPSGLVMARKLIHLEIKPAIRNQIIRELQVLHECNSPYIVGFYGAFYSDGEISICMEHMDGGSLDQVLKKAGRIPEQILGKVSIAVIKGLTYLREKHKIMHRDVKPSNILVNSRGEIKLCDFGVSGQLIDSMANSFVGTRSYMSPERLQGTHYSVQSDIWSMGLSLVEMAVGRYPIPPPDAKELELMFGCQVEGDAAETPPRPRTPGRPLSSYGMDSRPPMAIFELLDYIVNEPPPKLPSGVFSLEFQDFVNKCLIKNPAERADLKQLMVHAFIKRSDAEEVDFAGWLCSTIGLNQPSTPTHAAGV
Sequence of Phosphatidylinositol 4,5-bisphosphate 3-kinase catalytic subunit alpha isoform (Homo sapiens), P42336 [C420R] (P42336 whole entry C420R, canonical isoform): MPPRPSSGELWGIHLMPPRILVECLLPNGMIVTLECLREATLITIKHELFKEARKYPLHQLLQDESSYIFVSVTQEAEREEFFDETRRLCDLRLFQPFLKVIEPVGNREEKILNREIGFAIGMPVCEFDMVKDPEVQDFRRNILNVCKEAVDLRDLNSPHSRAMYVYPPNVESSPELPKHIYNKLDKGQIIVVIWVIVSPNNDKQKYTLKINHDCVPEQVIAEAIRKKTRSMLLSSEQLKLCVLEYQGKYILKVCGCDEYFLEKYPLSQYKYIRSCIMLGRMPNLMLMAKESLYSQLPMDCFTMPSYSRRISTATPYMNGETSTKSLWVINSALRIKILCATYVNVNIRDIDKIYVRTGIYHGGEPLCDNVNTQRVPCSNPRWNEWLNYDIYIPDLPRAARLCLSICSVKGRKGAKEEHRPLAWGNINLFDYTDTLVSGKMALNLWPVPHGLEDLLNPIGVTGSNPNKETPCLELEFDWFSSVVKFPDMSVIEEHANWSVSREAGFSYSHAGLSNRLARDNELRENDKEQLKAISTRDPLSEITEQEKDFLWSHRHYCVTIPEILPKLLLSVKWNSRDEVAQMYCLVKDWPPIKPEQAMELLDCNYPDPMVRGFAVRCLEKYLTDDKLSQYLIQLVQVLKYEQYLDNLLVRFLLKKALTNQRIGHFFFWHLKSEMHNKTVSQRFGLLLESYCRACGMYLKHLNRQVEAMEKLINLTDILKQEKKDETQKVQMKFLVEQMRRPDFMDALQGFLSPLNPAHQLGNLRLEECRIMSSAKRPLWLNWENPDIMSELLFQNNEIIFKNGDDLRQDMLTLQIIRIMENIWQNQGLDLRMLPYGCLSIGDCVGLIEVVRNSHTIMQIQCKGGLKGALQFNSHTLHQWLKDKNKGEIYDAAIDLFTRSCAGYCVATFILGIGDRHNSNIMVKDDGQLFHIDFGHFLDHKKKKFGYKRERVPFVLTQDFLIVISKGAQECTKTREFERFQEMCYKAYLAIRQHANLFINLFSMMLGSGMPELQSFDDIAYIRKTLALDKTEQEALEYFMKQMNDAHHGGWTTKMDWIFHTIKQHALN
Sequence of Interferon-induced, double-stranded RNA-activated protein kinase (Homo sapiens) (P19525 whole entry): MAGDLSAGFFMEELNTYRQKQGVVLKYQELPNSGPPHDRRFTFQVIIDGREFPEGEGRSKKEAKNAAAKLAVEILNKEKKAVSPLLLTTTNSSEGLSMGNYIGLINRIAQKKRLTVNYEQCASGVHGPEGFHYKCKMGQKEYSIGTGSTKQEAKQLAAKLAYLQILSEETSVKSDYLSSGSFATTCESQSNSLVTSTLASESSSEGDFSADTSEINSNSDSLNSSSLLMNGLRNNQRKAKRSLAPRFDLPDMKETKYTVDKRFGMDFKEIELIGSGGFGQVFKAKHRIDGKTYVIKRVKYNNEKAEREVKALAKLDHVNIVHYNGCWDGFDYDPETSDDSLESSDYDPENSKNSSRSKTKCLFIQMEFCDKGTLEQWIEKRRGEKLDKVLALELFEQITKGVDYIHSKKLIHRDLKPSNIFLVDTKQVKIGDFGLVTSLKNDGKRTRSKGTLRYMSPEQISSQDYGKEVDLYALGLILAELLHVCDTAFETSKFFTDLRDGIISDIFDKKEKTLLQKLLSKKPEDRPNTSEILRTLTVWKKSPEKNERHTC
Sequence of Cyclin-dependent kinase 3 (Homo sapiens) (Q00526 whole entry, looked up): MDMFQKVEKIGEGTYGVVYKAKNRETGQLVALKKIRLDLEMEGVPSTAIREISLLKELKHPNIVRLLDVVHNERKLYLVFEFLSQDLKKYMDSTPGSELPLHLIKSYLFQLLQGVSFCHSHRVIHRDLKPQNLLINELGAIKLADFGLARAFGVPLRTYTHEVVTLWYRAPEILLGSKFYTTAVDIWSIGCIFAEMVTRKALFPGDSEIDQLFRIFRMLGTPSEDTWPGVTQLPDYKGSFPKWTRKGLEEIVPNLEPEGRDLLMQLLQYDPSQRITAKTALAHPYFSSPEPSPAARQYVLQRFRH

Consider `Cc1cc([C@@H](C)Nc2ccccc2C(=O)O)c2nc(N3CCOCC3)cc(=O)n2c1` [AZD-6482], for which the % of control in [1] came to 100%.

Compound `CN(C)C/C=C/C(=O)Nc1ccc(C(=O)N2CCCC(Nc3ncc(Cl)c(-c4c[nH]c5ccccc45)n3)C2)cc1` (configuration not stated) came in with a % of control in assay [2] of 100%.

The compound `CCN(CC)CCCCNc1ncc2cc(-c3cc(OC)cc(OC)c3)c(NC(=O)NC(C)(C)C)nc2n1` had a % of control in [3] of 100%.

On to `CCC(=O)N1CCN(c2ccc(-n3c(=O)ccc4cnc5ccc(-c6cnc7ccccc7c6)cc5c43)cc2C(F)(F)F)CC1`, for which the % of control in [4] is 55%.

Turning to `CN(C)CCOc1ccc(-c2nc(-c3ccncc3)c(-c3ccc4c(c3)CC/C4=N\O)[nH]2)cc1`, the % of control in [5] amounted to 85%; in [6], 84%; in [7], 81%; in [8] it was 100%; in assay [9], 81%; in assay [10], 100%. Further, the % of control in [11] worked out at 93%; in assay [12] it was 98%; in assay [13], 83%; in assay [14], 88%.

`Cc1cc(F)c(C(=O)Nc2cccc(-c3nncn3C(C)C)n2)cc1-n1cnc(C2CC2)c1`: the figures for the % of control in assay [15] and in [16] were 91% and 96%, respectively.

`Cc1cnc(Nc2ccc(F)cc2Cl)nc1-c1c[nH]c(C(=O)N[C@H](CO)c2cccc(Cl)c2)c1`: in assay [17], the % of inhibition is 11%.

As to `C=CC(=O)Nc1cc(-n2c(=O)ccc3cnc4ccc(-c5ccc(NS(C)(=O)=O)cc5)cc4c32)ccc1C`, the % of control was 89% in assay [18] (at 1 µM) and 99% in [18] (at 10 µM).

For the compound `Cc1cc(C)cc([C@H]2c3cc(C)ccc3NC(=O)CN2C(=O)c2ccc(Br)s2)c1`, the % of activity is 100% in assay [19] (at 1 µM) and 96.7% in assay [19] (at 10 µM).

Take `CC[C@@H]1[C@H](F)C(=O)N[C@@H]1COc1nccc2cc(C(N)=O)c(OC)cc12` [ZIMLOVISERTIB]: the % of inhibition in assay [20] (at 0.01 µM) was -3.7%; in assay [20] (at 0.04 µM) it was 1.4%; in [20] (at 0.2 µM) it was 2.2%; in assay [20] (at 1 µM) it was 2%; in assay [20] (at 5 µM) it was -4.4%; in [21], -20.3%.

Take `COCC(=O)NC/C=C/c1ccc2ncnc(Nc3ccc(Oc4ccc(C)nc4)c(C)c3)c2c1` [CP-724714]: the % of control in assay [22] is 99%; in [23], 100%.

As to `N#Cc1cccc(-c2c[nH]c3ncnc(N4CCOCC4)c23)c1`, the % of control in [24] came to 71%.

As for `C=CC(=O)Nc1ccc(C(=O)Nc2[nH]nc3c2CN(C(=O)N[C@H](CN(C)C)c2ccccc2)C3(C)C)cc1`, the % of engagement in [25] was found to be 14.4%; in assay [26] it was 2.3%.
